From US3933784A, “Des-(ser^13)-srif and intermediates” (American Home Products Corporation, priority 1975, dated 1976)
Positions of bridges follow the written chain, without caps; N, C: chain ends. No end group written: not given here.

System: growth hormone
Experiment: Growth hormone activity in nembutal-treated rats, growth hormone level by radioimmunoassay
Type: in vivo
Conditions: rats 200-250 g, nembutal 50 mg/kg i.p., 5 minutes later compound 800 μg per rat s.c. in saline; blood taken 15 minutes after injection; control rats 159 ± 16 ng/ml
Experimental: After hydrolysis of the peptide in methanesulfonic acid for 18 hours at 120°C in an evacuated sealed tube, the following values for the amino acid residues are obtained: Ala 1.00, Gly 1.00, Cys 1.59, Lys 1.88, Asp 0.99, Phe 3.05, Trp (present, but not quantitated), Thr 1.76. The growth hormone activity of the compound of Example 3 was determined by injecting rats weighing about 200-250 g first with nembutal intraperitoneally at a dose of 50 mg/kg then after 5 minutes injecting the rats subcutaneously with a solution of the compound of Example 3 in saline at a dose of 800 μg per rat. Blood samples are taken 15 minutes after injection with the compound of Example 3 and the growth hormone level determined by radioimmunoassay.

For “L-alanylglycyl-L-cysteinyl-L-lysyl-L-asparaginyl-L-phenylalanyl-L-phenylalanyl-L-tryptophyl-L-lysyl-L-threonyl-L-phenylalanyl-L-threonyl-L-cysteine-(3-13 cyclic) disulfide (AGCKNFFWKTFTC; disulfide 3-13; UniProt P61278 103-116, looked up, variant S13*) [Example 3, tridecapeptide analog of somatostatin in which the amino acid in the thirteen position has been omitted]”, the growth hormone level was 49 ± 7 ng/mL.
